This note sets out measurements from patent US9815863B2, “Hydrogen bond forming fluoro ketolides for treating diseases” (priority 2010, dated 2017).

Converted amounts (≈) assume the structure as drawn.

Experiment [1] concerns Streptococcus pyogenes Tel^R, Mac^R. The experiment can be described thus: MIC against streptococci clinical isolates (Table 3). The format is cell-based. As to conditions: Streptococcus pyogenes.
Experiment [2] concerns eukaryotic ribosome (rabbit reticulocyte lysate). Nature of the experiment: Rabbit reticulocyte cell-free translation system, luciferase synthesis. The format is biochemical. As to conditions: concentrations up to 50 μM. The procedure:
The rabbit reticulocyte cell-free translation system (Promega, Cat. No. L4540) was used to assay the effect of the drugs on activity of the eukaryotic ribosome. […] Polyadenylated luciferase mRNA (Promega, Cat. No. L4561) was denatured before use by incubating the RNA at 65° C. for 3 min and then placed on ice. Translation mix (2 μL) was mixed with the rabbit reticulocyte lysate to start the reaction. The translation mix contained 0.3 μL of denatured luciferase mRNA (0.3 μg), 0.2 μL of 1 mM amino acid mixture, 0.2 μL of ribonuclease inhibitor (8U, Roche, Cat. No. 03 335 399001), 0.4 μL of 2.5 M potassium chloride, and 0.9 μL of water. Reactions were incubated at 30° C. for 30 min and then placed on ice.

The target in the next experiment is S. aureus ribosome. Nature of the experiment: Competition binding with [14C]erythromycin, S. aureus ribosome. The procedure:
(§1) Competition binding studies. Binding of erythromycin to E. coli and S. aureus ribosomes and competition experiments were done by size-exclusion chromatography using Bio-Gel P30 spin columns as described in Xiong, L., Y. Korkhin, and A. S. Mankin. 2005. Binding site of the bridged macrolides in the Escherichia coli ribosome. Antimicrob. Agents Chemother. 49:281-288.
(§2) For competition binding experiments, ribosomes (100 nM) were preincubated with 100 nM [^14C]erythromycin (48.8 mCi/mmol; PerkinElmer) in 160 μL of buffer A at 37° C. for 15 min, then at 20° C. for 10 min. Competing antibiotics were added at varying concentrations, and the binding mixture was incubated at 20° C. for 100 min. The reactions were loaded onto the spin columns and the amount of ribosome-associated radioactivity was measured as described above. Binding data were analyzed using Prism software (GraphPad). Cell free transcription-translation assays.

A further experiment relates to E. coli ribosome. The experiment can be described thus: Competition binding with [14C]erythromycin, E. coli ribosome. The procedure:
as §1, §2

For experiment [3], the system named is E. coli ribosomes (23S rRNA). The experiment can be described thus: RNA footprinting (ribosome chemical probing), wild-type E. coli ribosomes. The format is binding. As to conditions: 100 μM antibiotic. As to the method:
Ribosome chemical probing. rRNA probing was done following standard protocols (Merryman, C., and H. F. Noller. 1998. Footprinting and modification-interference analysis of binding sites on RNA, p. 237-253. In C. W. J. Smith (ed.), RNA:Protein Interactions, A Practical Approach. Oxford University Press, Oxford), with minor modifications. Briefly, 200 nM ribosomes were incubated with 100 μM antibiotic in 50 μL of buffer B (80 mM HEPES-KOH [pH 7.8], 20 mM MgCl2, 100 mM NH4Cl, 1.5 mM dithiothreitol) for 10 min at 37° C., followed by 10 min at 20° C. Modifying reagents (dimethyl sulfate [DMS], kethoxal, or 1-cyclohexyl-3-(2-morpholinoethyl)carbodiimide metho p-toluene sulfonate [CMCT]) were added and the modification reaction was carried out for 10 min at 37° C. After quenching the reaction and ethanol precipitation, rRNA was extracted and the distribution of modified nucleotides was assessed by primer extension.
Interactions of CEM-101 with wild-type E. coli and S. aureus ribosomes in solution. […] 1987. Chloramphenicol, erythromycin, carbomycin and vernamycin B protect overlapping sites in the peptidyl transferase region of 23S ribosomal RNA. Biochimie 69:879-884). Also included in this study was a C3-cladinose cousin of CEM-101, CEM-103, which lacks the C2-linked fluorine atom.

Experiment [4] deals with bacterial protein synthesis (E. coli S30 extract). The experiment can be described thus: E. coli cell-free transcription-translation (TnT) S30 system, firefly luciferase synthesis. The conditions noted are these: read-out: IC50 of inhibition of firefly luciferase synthesis, ribosomes 600 nM.
In experiment [5] the test system is Streptococcus pneumoniae Pen^R, Tel^1/^R, Mac^R. Nature of the experiment: MIC against streptococci clinical isolates (Table 3). The format is cell-based. The conditions noted are these: Streptococcus pneumoniae, S. pneumoniae Pen^R, 12 strains, constitutive ermB.
The subject of experiment [6] is Streptococcus pyogenes Tel^S, Mac^S. The experiment is described as above. The format is cell-based. As to conditions: Streptococcus pyogenes, 10 strains.
In experiment [7] the test system is Streptococcus pneumoniae Pen^S, Tel^S, Mac^S. The experiment is described as above. The format is cell-based. As to conditions: Streptococcus pneumoniae, 10 strains.

Consider `CC[C@H]1OC(=O)[C@@](C)(F)C(=O)[C@H](C)[C@@H](O[C@@H]2O[C@H](C)C[C@H](N(C)C)[C@H]2O)[C@](C)(OC)C[C@@H](C)C(=O)[C@H](C)[C@H]2N(CCCCn3cc(-c4cccc(N)c4)nn3)C(=O)O[C@]12C` [CEM-101], for which the MIC50 in experiment [1] stood at 0.125 µg/mL (≈ 0.148 µM); in experiment [5] (read-out: MIC50) it was 0.5 µg/mL (≈ 0.592 µM); in experiment [6] (read-out: MIC50) it was 0.03 µg/mL (≈ 0.0355 µM); in experiment [7] (read-out: MIC50), 0.03 µg/mL (≈ 0.0355 µM). Also, the MIC90 in experiment [1] (S. pyogenes Tel^R, Mac^R, 9 strains (8 ermB, 1 ermA, constitutive), read-out: MIC90) was 0.25 µg/mL (≈ 0.296 µM); in experiment [5] (read-out: MIC90), 0.5 µg/mL (≈ 0.592 µM); in [6] (read-out: MIC90), 0.03 µg/mL (≈ 0.0355 µM); in experiment [7] (read-out: MIC90), 0.03 µg/mL (≈ 0.0355 µM). Besides, in experiment [2], the “Effect on the synthesis of luciferase” value is “no effect”. The Kd at S. aureus ribosome (S. aureus ribosome, resulting from competition IC50) is 0.012 ± 0.001 µM; in the experiment on E. coli ribosome (E. coli ribosome, resulting from competition IC50), 0.062 ± 0.003 µM. Moreover, the IC50 at S. aureus ribosome (competition with 100 nM [14C]erythromycin, 100 nM S. aureus ribosomes, read-out: IC50 of displacement of erythromycin) is 0.117 ± 0.003 µM; in the experiment on E. coli ribosome (competition with 100 nM [14C]erythromycin, 100 nM E. coli ribosomes, read-out: IC50 of displacement of erythromycin), 0.155 ± 0.008 µM; in [4], 1.1 µM. Moreover, the “Protection of A752 from DMS modification” value in [3] (E. coli ribosomes) is recorded as “strongly protects”. In addition, the “Protection of A2058 and A2059 in domain V of 23S rRNA from modification with DMS” value in experiment [3] (E. coli wild-type ribosomes) is on record as “protect”.
